Our source for the EC50 and Efficacy values is ChEMBL document CHEMBL1208782, “Synthesis and pharmacological validation of a novel series of non-steroidal FXR agonists” (Bioorg Med Chem Lett, 2010).

Experiment [1] concerns the target T1, Bile acid receptor (Homo sapiens, UniProt Q96RI1).
T1 sequence (Q96RI1 whole entry): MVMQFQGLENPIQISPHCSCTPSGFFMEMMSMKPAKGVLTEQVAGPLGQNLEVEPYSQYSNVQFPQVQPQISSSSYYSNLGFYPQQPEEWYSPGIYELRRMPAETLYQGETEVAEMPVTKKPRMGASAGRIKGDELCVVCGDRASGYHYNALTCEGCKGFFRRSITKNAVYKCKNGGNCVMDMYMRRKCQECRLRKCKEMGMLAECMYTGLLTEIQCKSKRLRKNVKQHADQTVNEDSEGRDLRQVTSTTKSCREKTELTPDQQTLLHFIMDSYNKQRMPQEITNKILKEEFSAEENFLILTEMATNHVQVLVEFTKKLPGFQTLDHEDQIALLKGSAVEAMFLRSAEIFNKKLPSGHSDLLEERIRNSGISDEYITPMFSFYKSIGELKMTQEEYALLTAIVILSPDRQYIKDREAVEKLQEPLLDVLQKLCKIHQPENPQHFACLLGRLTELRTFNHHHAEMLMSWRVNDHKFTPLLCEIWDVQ
The experiment can be described thus: Agonist activity at human GST-fused FXR LBD assessed as cofactor peptide interaction with receptor ligand binding domain by FRET assay.

For experiment [2], the target named is T1, Bile acid receptor. Description: Agonist activity at human […] FXR LBD expressed in HEK293 cells coexpressing GAL4-DNA bindig domain and pFRluc by mammalian one-hybrid assay. It is filed as functional, cell-based.
The target of experiment [3] is T2, Bile acid receptor (Homo sapiens) (UniProt Q96RI1).
T2 sequence (whole entry): T1 sequence (Q96RI1 whole entry)
Description: Agonist activity at human GST-fused FXR LBD assessed as cofactor peptide interaction with receptor ligand binding domain by FRET assay relative to GW-4064.

In experiment [4] the target is T2, Bile acid receptor (Homo sapiens). Description: Agonist activity at human full length FXR transfected in HEK293 cells coexpressing pTRexDest/pGL2promotor assessed as luciferase activity by direct reporter cellular assay relative to GW-4064. The experiment is classed as functional, cell-based.
Experiment [5] addresses T1, Bile acid receptor. Description: Agonist activity at human full length FXR transfected in HEK293 cells coexpressing pTRexDest/pGL2promotor assessed as luciferase activity by direct reporter cellular assay. It is filed as functional, cell-based.
Experiment [6] deals with T2, Bile acid receptor (Homo sapiens). Description: Agonist activity at human […] FXR LBD expressed in HEK293 cells coexpressing GAL4-DNA bindig domain and pFRluc by mammalian one-hybrid assay relative to GW-4064. It is filed as functional, cell-based.

`O=C(O)c1ccc(OCc2ccc(OCc3c(-c4c(Cl)cccc4Cl)noc3C3CC3)nc2C(F)(F)F)cc1`: the half-maximal effective concentration (EC50) on Bile acid receptor [1] was 76 nM; on Bile acid receptor [2] (read-out: EC50), 95 nM; on Bile acid receptor [5] (read-out: EC50), 38 nM. Further, the Efficacy was 86% in experiment [3], 42% in experiment [4] and 59% in experiment [6].

With `CC(C)c1onc(-c2c(Cl)cccc2Cl)c1COc1ccc(N(C)C(=O)c2cccc(C(=O)O)c2)c(C(F)(F)F)n1`, the EC50 on Bile acid receptor [1] was 433 nM; on Bile acid receptor [2] (read-out: EC50), 571 nM; on Bile acid receptor [5] (read-out: EC50) it was 537 nM. In addition, the Efficacy in experiment [3] is 110%; in experiment [4], 55%; in experiment [6], 35%.

For the compound `CC(Oc1ccc(C(=O)O)cc1)c1ccc(OCc2c(-c3c(Cl)cccc3Cl)noc2C2CC2)nc1C(F)(F)F` (stereo not given), the figures for the EC50 at Bile acid receptor [1], at Bile acid receptor [2] (read-out: EC50) and at Bile acid receptor [5] (read-out: EC50) were 352 nM, 189 nM and 611 nM, respectively. Besides, the Efficacy in experiment [3] came out at 89%; in experiment [4] it was 33%; in experiment [6] it was 70%.

Take `O=C(O)c1cccc(OCc2ccc(OCc3c(-c4c(Cl)cccc4Cl)noc3C3CC3)nc2C(F)(F)F)c1`: the EC50 on Bile acid receptor [1] came to 43 nM; at Bile acid receptor [2] (read-out: EC50), 151 nM; at Bile acid receptor [5] (read-out: EC50), 33 nM. For the same compound, the figures for the Efficacy in experiment [3], in experiment [4] and in experiment [6] were 98%, 41% and 62%, respectively.

As for `CC(C)c1onc(-c2c(Cl)cccc2Cl)c1COc1ccc(N(C)Cc2ccc(CCC(=O)O)cc2)c(C(F)(F)F)n1`, the EC50 is 17 nM on Bile acid receptor [1], 35 nM on Bile acid receptor [2] (read-out: EC50) and 16 nM at Bile acid receptor [5] (read-out: EC50). Besides, the Efficacy worked out at 96% in experiment [3], 66% in experiment [4] and 55% in experiment [6].

Turning to `Cc1nc(OCc2c(-c3c(Cl)cccc3Cl)noc2C(C)C)ccc1N(C)C(=O)c1ccc(C(=O)O)cc1`, the results for the EC50 at Bile acid receptor [1], on Bile acid receptor [2] (read-out: EC50) and at Bile acid receptor [5] (read-out: EC50) were 365 nM, 2030 nM and 1190 nM, respectively. Moreover, the Efficacy turned out to be 95% in experiment [3], 49% in experiment [4] and 21% in experiment [6].

For the compound `CC(C)c1onc(-c2c(Cl)cccc2Cl)c1COc1ccc(N(C)Cc2ccc(OCCO)cc2)c(C(F)(F)F)n1`, the EC50 is 164 nM at Bile acid receptor [1], 1150 nM on Bile acid receptor [2] (read-out: EC50) and 155 nM on Bile acid receptor [5] (read-out: EC50). Besides, the Efficacy in experiment [3] turned out to be 87%; in experiment [4], 59%; in experiment [6], 43%.

Regarding `CC(C)c1onc(-c2c(Cl)cccc2Cl)c1COc1ccc(N(C)Cc2ccc(C(=O)NS(C)(=O)=O)cc2)c(C(F)(F)F)n1`, the EC50 at Bile acid receptor [1] was 40 nM; on Bile acid receptor [2] (read-out: EC50), 221 nM; on Bile acid receptor [5] (read-out: EC50), 11 nM. Besides, the figures for the Efficacy in experiment [3], in experiment [4] and in experiment [6] were 105%, 67% and 64%, respectively.

Consider `Cc1cc(C(F)(F)F)cc(OCc2c(-c3c(Cl)cccc3Cl)noc2C(C)C)n1`, for which the EC50 is 225 nM on Bile acid receptor [1], “Not Active” on Bile acid receptor [2] (hek293) and “Not Active” on Bile acid receptor [5] (hek293).

In the case of `CC(C)c1onc(-c2c(Cl)cccc2Cl)c1COc1ccc(NCc2ccc(C(=O)O)cc2)c(C(F)(F)F)n1`, the EC50 is 162 nM at Bile acid receptor [1], 398 nM at Bile acid receptor [2] (read-out: EC50) and 101 nM on Bile acid receptor [5] (read-out: EC50). Besides, the figures for the Efficacy in experiment [3], in experiment [4] and in experiment [6] were 97%, 45% and 48%, respectively.

Turning to `Cc1cc(OCc2c(-c3c(Cl)cccc3Cl)[n-][o+]c2C(C)C)ncc1[N+](=O)[O-]`, the EC50 on Bile acid receptor [1] is 89 nM; at Bile acid receptor [2] (read-out: EC50), 1000 nM; at Bile acid receptor [5] (read-out: EC50), 1140 nM.

Consider `CC(Oc1cccc(C(=O)O)c1)c1ccc(OCc2c(-c3c(Cl)cccc3Cl)noc2C2CC2)nc1C(F)(F)F` (stereo not given), for which the values for the EC50 on Bile acid receptor [1], at Bile acid receptor [2] (read-out: EC50) and on Bile acid receptor [5] (read-out: EC50) were 155 nM, 107 nM and 58 nM, respectively. The Efficacy in experiment [3] was determined as 102%; in experiment [4], 49%; in experiment [6] it was 50%.

Take `CC(C)c1onc(-c2c(Cl)cccc2Cl)c1COc1ccc(N(C)Cc2cccc(C(=O)NS(C)(=O)=O)c2)c(C(F)(F)F)n1`: the figures for the EC50 on Bile acid receptor [1], at Bile acid receptor [2] (read-out: EC50) and at Bile acid receptor [5] (read-out: EC50) were 48 nM, 279 nM and 20 nM, respectively. Further, the Efficacy in experiment [3] turned out to be 110%; in experiment [4] it was 72%; in experiment [6] it was 59%.

Take `CC(C)c1onc(-c2c(Cl)cccc2Cl)c1COc1cnc(N(C)Cc2cccc(C(=O)O)c2)c(Cl)c1`: the EC50 at Bile acid receptor [1] turned out to be 190 nM; on Bile acid receptor [2] (read-out: EC50), 100 nM; at Bile acid receptor [5] (read-out: EC50), 61 nM. Moreover, the figures for the Efficacy in experiment [3], in experiment [4] and in experiment [6] were 105%, 54% and 42%, respectively.

`CC(C)c1onc(-c2c(Cl)cccc2Cl)c1COc1ccc(N(C)C(=O)c2ccc(C(=O)O)cc2)c(C(F)(F)F)n1`: the EC50 was 235 nM on Bile acid receptor [1], 316 nM at Bile acid receptor [2] (read-out: EC50) and 208 nM on Bile acid receptor [5] (read-out: EC50). Moreover, the Efficacy turned out to be 101% in experiment [3], 63% in experiment [4] and 36% in experiment [6].

As to `CC(C)c1onc(-c2c(Cl)cccc2Cl)c1COc1ccc(/C=C/c2cccc(C(=O)O)c2)c(Cl)c1`, the Efficacy in experiment [3], in experiment [4] and in experiment [6] was 100% in each case.

On to `CC(C)c1onc(-c2c(Cl)cccc2Cl)c1COc1ccc(N(C)Cc2cccc(C(=O)O)c2)c(C(F)(F)F)n1`, for which the figures for the EC50 on Bile acid receptor [1], on Bile acid receptor [2] (read-out: EC50) and at Bile acid receptor [5] (read-out: EC50) were 12 nM, 80 nM and 6 nM, respectively. Besides, the figures for the Efficacy in experiment [3], in experiment [4] and in experiment [6] were 102%, 58% and 89%, respectively.

For `CCN(Cc1ccc(C(=O)O)cc1)c1ccc(OCc2c(-c3c(Cl)cccc3Cl)noc2C2CC2)nc1C(F)(F)F`, the figures for the EC50 on Bile acid receptor [1], on Bile acid receptor [2] (read-out: EC50) and at Bile acid receptor [5] (read-out: EC50) were 194 nM, 180 nM and 113 nM, respectively. The values for the Efficacy in experiment [3], in experiment [4] and in experiment [6] were 94%, 43% and 54%, respectively.

`CC(C)c1onc(-c2c(Cl)cccc2Cl)c1COc1ccc(N(C)Cc2ccc(OCC(=O)O)cc2)c(C(F)(F)F)n1`: the EC50 is 35 nM on Bile acid receptor [1], 214 nM on Bile acid receptor [2] (read-out: EC50) and 19 nM on Bile acid receptor [5] (read-out: EC50). Also, the Efficacy in experiment [3] is 90%; in experiment [4], 59%; in experiment [6] it was 69%.

On to `Cc1cc(OCc2c(-c3c(Cl)cccc3Cl)noc2C(C)C)nc2ccccc12`, for which the EC50 on Bile acid receptor [1] was 147 nM; on Bile acid receptor [2] (read-out: EC50), 536 nM; on Bile acid receptor [5] (read-out: EC50), 878 nM. For the same compound, the Efficacy in experiment [3] came to 104%; in experiment [4] it was 68%; in experiment [6] it was 40%.

Take `CC(c1ccc(OCc2c(-c3c(Cl)cccc3Cl)noc2C2CC2)nc1C(F)(F)F)N(C)c1ccc(C(=O)O)cc1` (stereo not given): the EC50 on Bile acid receptor [1] was 179 nM; on Bile acid receptor [2] (read-out: EC50), 208 nM; on Bile acid receptor [5] (read-out: EC50), 182 nM. Besides, the Efficacy in experiment [3] turned out to be 102%; in experiment [4], 57%; in experiment [6], 55%.

For `CC(C)c1onc(-c2c(Cl)cccc2Cl)c1COc1ccc(N(C)Cc2cccc(C(=O)NCCOP(=O)(O)O)c2)c(C(F)(F)F)n1`, the EC50 at Bile acid receptor [1] is 36 nM; on Bile acid receptor [2] (read-out: EC50), 457 nM; on Bile acid receptor [5] (read-out: EC50), 216 nM. In addition, the Efficacy in experiment [3] was 114%; in experiment [4], 61%; in experiment [6], 48%.

On to `CC(C)c1onc(-c2c(Cl)cccc2Cl)c1COc1ccc(NC(=O)c2ccc(C(=O)O)cc2)c(C(F)(F)F)n1`, for which the concentration for a half-maximal effect (EC50) was 452 nM on Bile acid receptor [1], 474 nM on Bile acid receptor [2] (read-out: EC50) and 385 nM at Bile acid receptor [5] (read-out: EC50). In addition, the Efficacy in experiment [3] is 109%; in experiment [4], 48%; in experiment [6] it was 21%.

For the compound `Cc1cc(OCc2c(-c3c(Cl)cccc3Cl)noc2C(C)C)ncc1[N+](=O)[O-]`, the Efficacy worked out at 101% in experiment [3], 76% in experiment [4] and 58% in experiment [6].

Turning to `CC(C)c1onc(-c2c(Cl)cccc2Cl)c1COc1cnc(N(C)Cc2ccc(C(=O)O)cc2)c(Cl)c1`, the concentration giving a half-maximal response (EC50) on Bile acid receptor [1] came to 242 nM; on Bile acid receptor [2] (read-out: EC50), 107 nM; at Bile acid receptor [5] (read-out: EC50) it was 120 nM. The Efficacy in experiment [3] is 103%; in experiment [4], 51%; in experiment [6] it was 70%.

With `CC(Nc1ccc(C(=O)O)cc1)c1ccc(OCc2c(-c3c(Cl)cccc3Cl)noc2C2CC2)nc1C(F)(F)F` (stereo not given), the EC50 turned out to be 101 nM at Bile acid receptor [1], 333 nM at Bile acid receptor [2] (read-out: EC50) and 202 nM at Bile acid receptor [5] (read-out: EC50). Further, the Efficacy in experiment [3] was 99%; in experiment [4], 49%; in experiment [6] it was 59%.

In the case of `O=C(O)c1ccccc1OCc1ccc(OCc2c(-c3c(Cl)cccc3Cl)noc2C2CC2)nc1C(F)(F)F`, the EC50 came out at 434 nM on Bile acid receptor [1], 1710 nM on Bile acid receptor [2] (read-out: EC50) and 611 nM at Bile acid receptor [5] (read-out: EC50). For the same compound, the Efficacy in experiment [3] came out at 91%; in experiment [4], 33%; in experiment [6], 63%.
